This note sets out measurements from patent publication US7368429B2, “Peptide specificity of anti-myelin basic protein and the administration of myelin basic protein peptides to multiple sclerosis patients” (The Governors of the University of Alberta, priority 1991, dated 2008).

Data set [1] relates to anti-MBP purified from CSF of MS patients. Briefly: In vitro neutralization of purified anti-MBP (liquid phase assay, then solid phase radioimmunoassay). It is filed as binding, human. Particulars: for REACTIVITY WITH ANTI-MBP: purified anti-MBP, h-MBP 0-1000 ng, peptides 0-10,000 ng, 1.5 hours incubation; for neutralization of purified anti-MBP: pooled anti-MBP from 10 MS patients, FIG. 2; for neutralization of anti-MBP purified from individual patients: anti-MBP from 7 individual MS patients, FIG. 3; for times less effective on a molar basis than intact MBP at causing inhibition: peptides giving complete inhibition. The source says:
Purified MBP was coupled to CNBr-activated Sepharose 4B (Pharmacia™) according to the manufacturer's instructions. Purified CSF IgG containing increased anti-MBP levels from 35 patients with acute MS relapses was used to isolate anti-MBP by MBP-Sepharose affinity chromatography (Warren, K. G. and Catz, I., J Neurol Sci 103:90-96, 1991). Purified anti-MBP samples were compared with the initial IgG source by poly-acrylamide gel electrophoresis. When purified anti-MBP samples were absorbed to zero with MBP, the post-absorption supernatants contained no residual IgG indicating the purity of anti-MBP.
Constant amounts of anti-MBP (15 radioactivity binding units corresponding to 100 for scale expansion purposes=% 0) were incubated with increasing amounts of h-MBP (0-1000 ng) or individual peptides of MBP (0-10,000 ng) in a liquid phase assay and after 1.5 hours incubation, free anti-MBP levels were determined in all mixtures. Anti-MBP isolated from 7 individual MS patients or pooled anti-MBP from 10 different MS patients were used in neutralization experiments. […] Another mouse monoclonal antibody to epitope 45-50 was used as negative antibody control.
Anti-MBP levels were determined by a solid phase radioimmunoassay with human MBP (Warren, K. G. and Catz, I., Ann Neurol 209:20-25, 1986; Warren, K. G. and Catz, I., Ann Neurol 21:183-187, 1987; and Warren, K. G. and Catz, I., J Neurol Sci 91:143-151, 1989). Free anti-MBP levels were measured in all fractions from affinity chromatography and in all neutralization mixtures. All individual samples were run in quadruplicate using the same iodinated material in order to minimize between-assay variability.

The nature of data set [2]: Safety monitoring of MS patients after peptide administration. The class given is in vivo, human.
Another data set has as its system CSF anti-MBP. The experiment in a line: Intrathecal peptide administration to MS patients, CSF anti-MBP by radioimmunoassay. The class given is in vivo, human. The procedure: Anti-MBP levels were determined by a solid phase radioimmunoassay with human MBP coated on Immulon microtiter wells. Immulon microtiter wells were coated with 100 μl of 10 μg/ml of MBP (1 μg/well) and incubated overnight at 37° C. After quenching with bovine serum albumin (BSA) and three water washes, the wells were stored at room temperature. Samples of 100 μl of CSF or tissue extracts diluted to 0.010 gm of IgG/l (with 0.01 M Barbitol Buffered Saline (BBS) pH 6.9-7.1, 0.5% BSA and 0.05% Tween 20) were incubated in MBP-coated wells for 1-2 hours at room temperature. After 5 buffer washes (with 0.01 M BBS, 0.5 BSA and 0.05% Tween 20), wells were incubated with goat […] IgG-Fc specific (in 0.01 M BBS, 0.05% Tween 20, 0.5% BSA) for 1 hour at room temperature and then rinsed as above. Finally, ^125I-protein A (or ^125I-protein G) was added and incubated for 1 hour at room temperature. When ^125I-protein G was used as a tracer, ovalbumin replaced BSA in assay buffer and for quenching. After three final water washes wells were individually counted. Results are expressed in radioactivity defined as: (counts of sample−counts of blank)÷(counts of total radioactivity−counts of blank). All samples are run in 10 replicate and counting time is 10 minutes in order to collect>10,000 counts for any positive sample.
Prior to being assayed all CSF and/or tissue samples were diluted to a final IgG concentration of 0.010 g/l. F anti-MBP was detected directly in CSF or tissue extract while B levels of antibody were determined following acid hydrolysis of immune complexes with glycine HCl buffer pH 2.2. […] For epitope localization, synthetic peptides were firstly reacted with purified antibody in a liquid phase competitive assay and then anti-MBP was determined by radioimmunoassay in all resulting supernatants. Results of the combined competitive binding assay and radioimmunoassay were expressed as percent inhibition of synthetic peptide defined as 100—radioactivity units. Samples were done in 10 replicates and counted for 10 minutes each in a LKB1275 Minigamma counter. […]
A Phase 1 experiment to determine the effect of synthetic peptide MBP75-95 on F and B titers of CSF anti-MBP was conducted. […] After obtaining informed consent, 14 patients volunteered for this study; eight patients were selected on the basis of their initial titre of F CSF anti-MBP (above 8 radioactivity units) (Table 2) to receive one intrathecal injection of either peptide MBP75-95 which bound anti-MBP in vitro or a non-binding control peptide MBP35-58 (Warren and Catz, 1993b). […] Cell counts, total protein, glucose, IgG and albumin levels were determined in all CSF samples obtained. F and B anti-MBP levels were determined by radioimmunoassay, as described above. […]

The target of data set [3] is purified anti-MBP (antibodies to human myelin basic protein purified from CSF of multiple sclerosis patients; pooled from 10 different patients). Briefly: liquid-phase neutralization + solid-phase RIA on human MBP; reference intact MBP.
Data set [4] has as its target purified F (free) anti-MBP from MS brain tissue. The experiment in a line: liquid-phase competitive inhibition + solid-phase RIA on human MBP (FIG. 10).
The target in data set [5] is purified B (bound) anti-MBP from MS brain tissue. The data set is described as above.
For data set [6], the target named is free (F) anti-MBP in the CSF of MS patients. The experiment in a line: cell-based or functional assay.
In data set [7] the target is purified B (bound) anti-MBP from MS brain tissue. The experiment in a line: competitive inhibition assays using a series of 41 decapeptides.

Entries after “also recorded” stand apart in the source; their conditions may differ. Where a SMILES comes first, the peptide text is derived from it. Where no end group is shown, it is not given here. Some results are limits rather than exact numbers.

As for “26-40: synthetic peptide of human MBP sequence 26-40 (HGFLPRHRDTGILDS)”, the “REACTIVITY WITH ANTI-MBP” value in data set [1] is on record as “−”.
On the same count and under the same terms, the entry for “141-155: synthetic peptide of human MBP sequence 141-155 (FKGVDAQGTLSKIFK)” is “−”.
Same read-out and setting: the entry for “Cy 136-149: synthetic peptide of human MBP sequence 136-149 with unnatural cysteine residue (CSAHKGFKGVDAQGT)” is “−”.
Consider `CC[C@H](C)[C@H](NC(=O)[C@H](CC(N)=O)NC(=O)[C@H](CCCCN)NC(=O)[C@H](Cc1ccccc1)NC(=O)[C@H](Cc1ccccc1)NC(=O)[C@H](Cc1c[nH]cn1)NC(=O)[C@@H](NC(=O)[C@@H](NC(=O)[C@@H]1CCCN1C(=O)[C@H](CC(N)=O)NC(=O)[C@H](CCC(=O)O)NC(=O)[C@H](CC(=O)O)NC(=O)[C@H](CCC(N)=O)NC(=O)[C@@H](NC(=O)[C@H](CCCNC(=N)N)NC(=O)CNC(=O)[C@H](Cc1c[nH]cn1)NC(=O)[C@H](CO)NC(=O)[C@@H](N)CCCCN)[C@@H](C)O)C(C)C)C(C)C)C(=O)N[C@H](C(=O)N[C@H](C(=O)O)[C@@H](C)O)C(C)C` [MBP75-95] (H-KSHGRTQDENPVVHFFKNIVT-OH; N-terminus and C-terminus assumed), for which, in data set [2] (500 mg intravenously over 30 minutes, patient 8M41), the adverse effects entry is reported as “No adverse effects were observed”. The “systemic complications (electrolytes, cardiac-liver-kidney dysfunction, hematology)” value in data set [2] (repeated intrathecal inoculations) is recorded as “no adverse complications have occurred”.
Take HHPARTAHYGSLPQK [MBP61-75]: in data set [1], the “neutralization of purified anti-MBP” value is “partially neutralized” and the “REACTIVITY WITH ANTI-MBP” value is reported as “+”.
Regarding KNIVTPRTPPPSQGKG [MBP91-106], in data set [1], the “neutralization of anti-MBP purified from individual patients” value was “completely neutralized”, the “times less effective on a molar basis than intact MBP at causing inhibition” value is “approximately 100 times”, the “neutralization of purified anti-MBP” value is on record as “completely neutralized” and the “REACTIVITY WITH ANTI-MBP” value is reported as “−”.
“117-129: synthetic peptide of human MBP sequence 117-129 (GAEGQRPGFGYGG)”: in data set [1], the “REACTIVITY WITH ANTI-MBP” value is “−”.
Same read-out and setting: as for “Cy 11-24: synthetic peptide of human MBP sequence 11-24 with unnatural cysteine residue (CGSKYLATASTMDHA)”, the entry is “−”; as for “Cy 127-140: synthetic peptide of human MBP sequence 127-140 with unnatural cysteine residue (CYGGRASDYKSAHKG)”, “−”; as for “Cy 4-18: synthetic peptide of human MBP sequence 4-18 with unnatural cysteine residue (CKRPSQRHGSKYLATA)”, “−”.
For the molecule “Thr Gln Asp Glu Asn Pro Val Val His Phe Phe Lys Asn Ile Val Thr Pro Arg (CTQDENPVVHFFKNIVTPRG) [MBP80-97]”, in data set [1], the “neutralization of anti-MBP purified from individual patients” value was “completely neutralized”, the “times less effective on a molar basis than intact MBP at causing inhibition” value is listed as “approximately 100 times”, the “neutralization of purified anti-MBP” value is on record as “completely neutralized” and the “REACTIVITY WITH ANTI-MBP” value is “++”.
For YGSLPQKSHGRTQDE [MBP69-83], in data set [1], the “neutralization of purified anti-MBP” value was “partially neutralized” and the “REACTIVITY WITH ANTI-MBP” value was “++”.
With “MBP35-58: non-binding, control synthetic peptide of human MBP, residues 35-58 (TGILDSIGRFFGGDRGAPKRGSGK)”, in data set [1], the “REACTIVITY WITH ANTI-MBP” value is listed as “−”. Moreover, the “CSF F anti-MBP” value in the data set with CSF anti-MBP (single intrathecal injection 5 mg) is reported as “remained elevated at baseline level”; with CSF anti-MBP (single intrathecal injection 10 mg, chronic progressive MS) it was “persistently elevated”. In addition, in the data set on CSF anti-MBP (single intrathecal injection 1, 2.5, 5 or 10 mg, 24 hour experiment, chronic progressive MS), the “F and B levels of CSF anti-MBP” value was “remained unchanged; also recorded: remained unaffected”. In the data set on CSF anti-MBP (single intrathecal injection, increasing amounts 1-10 mg, chronic progressive MS), the “CSF F (free) anti-MBP” value is “did not react”.
For the molecule “Cy 51-64 Gly: synthetic peptide of human MBP sequence 51-64 with added Cy and Gly (CAPKRGSGKDSHHPAG)”, the “REACTIVITY WITH ANTI-MBP” value in data set [1] was “+”.
CKSHGRTQDENPVVHFFKNIVT [peptide MBP75-95 (Cy 75-95, Example 1)]: the times less effective on a molar basis than intact MBP at causing inhibition in data set [3] was found to be 100 times.
Take CTQDENPVVHFFKNIVTPRG [peptide MBP80-97 (Cy 80-97 Gly)]: the times less effective on a molar basis than intact MBP at causing inhibition in data set [3] is 100 times.
For the molecule NPVVHFFKNI [decapeptide MBP84-93], the percent inhibition in data set [4] and in data set [5] was above 80% in each case.
For CKNIVTPRTPPPSQGKG [peptide MBP91-106 (Cy 91-106)], the times less effective on a molar basis than intact MBP at causing inhibition in data set [3] is 100 times.
For KSHGRTQDENPVVHFFKNIVT [synthetic peptide MBP75-95 (Example 2 and later)], the percent inhibition in data set [4] and in data set [5] was 100% each time. Moreover, the decrease in F anti-MBP level in CSF after one intrathecal injection of 1 mg MBP75-95 (patient 6F53) in data set [6] stood at 75%.
Take PVVHFFKNIV [decapeptide MBP85-94]: the percent inhibition in data set [4] and in data set [5] was above 80% throughout.
Regarding VHFFKNIVTP [decapeptide MBP87-96], the percent inhibition in data set [4] and in data set [5] was above 80% throughout.
For the molecule VVHFFKNIVT [decapeptide MBP86-95], the figures for the percent inhibition in data set [4], in data set [5] and in data set [7] were above 80%, above 80% and above 95%, respectively.
